Marks after values point to notes of the source that are not given here.
What was measured:
Assay type in all cases: in vivo
Details in all cases: 100 = 100% disease control
Septoria tritici = assay: Test G: wheat leaf blotch on wheat seedlings, sprayed the day before inoculation, visual disease rating
Outline: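 Wheat seedlings were sprayed to run-off with test suspension (acetone/water plus surfactant), generally 200 ppm (≈500 g/ha), or 40 ppm where marked. Septoria tritici spores were inoculated the next day; plants were held 48 h at 24°C in saturated atmosphere, then 19 days at 20°C before visual disease rating.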

[1] = tested on: Puccinia recondita f. sp. tritici; assay: Test I: wheat leaf rust on wheat seedlings, sprayed the day before inoculation, visual disease rating
Outline: (§1)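 Test rate was 200 ppm, sprayed to run-off and equal to 500 g/ha, or 40 ppm where marked. The compound was first taken up in acetone at 3% of final volume and suspended in acetone/purified water (50/50) containing 250 ppm Trem® 014.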

Botrytis cinerea = assay: Test C: tomato Botrytis on tomato seedlings, sprayed the day before inoculation, visual disease rating
Outline: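 Each compound is first taken up in acetone at 3% of the final volume and then brought to the desired ppm in a 50:50 acetone–water mix with 250 ppm surfactant (polyhydric alcohol esters). Tomato seedlings receive the suspension to run-off, normally at 200 ppm, occasionally 40 ppm.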

Alternaria solani = assay: Test D: tomato early blight, sprayed the day before inoculation, visual disease rating
Outline: as §1

Septoria nodorum = assay: Test F: wheat glume blotch on wheat seedlings, sprayed the day before inoculation, visual disease rating
Outline: as §1

[2] = tested on: Erysiphe graminis f. sp. tritici; assay: Test J: wheat powdery mildew on wheat seedlings, sprayed the day before inoculation, visual disease rating
Outline: as §1

[3] = tested on: Puccinia recondita f. sp. tritici; assay: Test H: wheat leaf rust, test suspension sprayed after inoculation of wheat seedlings, visual disease rating
Outline: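 Wheat seedlings inoculated with P. recondita spores, held 24 h saturated at 20 °C, then 2 days in growth chamber at 20 °C; compound suspension (acetone/water with Trem 014) sprayed to run-off afterwards. Rated visually; 200 ppm (≈500 g/ha) unless marked *, which denotes 40 ppm.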

[4] = 200 ppm, 0 = no control relative to controls
[5] = 40 ppm (marked *), 0 = no control

SMILES | Test G disease control rating (Septoria tritici; [4]) [%] | Test I disease control rating [1, 4] [%] | Test C disease control rating (Botrytis cinerea; [4]) [%] | Test D disease control rating (Alternaria solani; [4]) [%] | Test F disease control rating (Septoria nodorum; [4]) [%] | Test J disease control rating [2, 4] [%] | Test H disease control rating [3, 4] [%] | Test G disease control rating (Septoria tritici; [5]) | Test I disease control rating [1, 5] | Test C disease control rating (Botrytis cinerea; [5]) | Test D disease control rating (Alternaria solani; [5]) | Test F disease control rating (Septoria nodorum; [5]) | Test J disease control rating [2, 5] | Test H disease control rating [3, 5]
COc1ccc(F)c(-c2c(Cl)nc(Cl)n2-c2ccc(C)cc2)c1F [compound 310] | 96 | 100 | 99 | 100 | 99 | 100 | 61 | – | – | – | – | – | – | –
COc1ccc(F)c(-c2c(Cl)nc(Br)n2-c2ccc(F)cc2)c1F [compound 314] | 93 | 100 | 99 | 100 | 100 | 100 | 32 | – | – | – | – | – | – | –
COc1ccc(F)c(-c2c(Cl)nc(C)n2-c2cccc(F)c2)c1F [compound 315] | 95 | 100 | 99 | 100 | 100 | 100 | 86 | – | – | – | – | – | – | –
COc1ccc(F)c(-c2c(Cl)nc(Br)n2-c2cccc(C)c2)c1F [compound 316] | 93 | 99 | 99 | 99 | 95 | 100 | 6 | – | – | – | – | – | – | –
COc1ccc(F)c(-c2c(Cl)nc(Br)n2-c2ccc(Cl)c(F)c2)c1F [compound 317] | 95 | 99 | 100 | 100 | 100 | 100 | 17 | – | – | – | – | – | – | –
Cc1ncn(-c2ccc(Cl)c(F)c2)c1-c1ccccc1F [compound 318] | 91 | 9 | 100 | 16 | 0 | 87 | 0 | – | – | – | – | – | – | –
Cc1ncn(-c2ccc(Cl)c(F)c2)c1-c1ccnc(F)c1 [compound 319] | 98 | 28 | 99 | 24 | 0 | 81 | 6 | – | – | – | – | – | – | –
Cc1ncn(-c2ccc(Cl)cn2)c1-c1c(F)cccc1F [compound 320] | 100 | 28 | 99 | 67 | 0 | 99 | 0 | – | – | – | – | – | – | –
Cc1nc(Cl)n(-c2ccc(Cl)cn2)c1-c1c(F)cccc1F [compound 321] | 100 | 100 | 100 | 100 | 100 | 100 | 83 | – | – | – | – | – | – | –
Fc1cc(-c2c(CCl)nc(Cl)n2-c2ccc(Cl)c(F)c2)ccn1 [compound 322] | – | – | – | – | – | – | – | 0* % | 28* % | 62* % | 0* % | 0* % | 0* % | 63* %
Cc1nc(Cl)n(-c2ccc(Cl)c(F)c2)c1-c1ccnc(F)c1 [compound 323] | 100 | 100 | 100 | 99 | 0 | 99 | 70 | – | – | – | – | – | – | –
Fc1ccc(-n2c(Cl)nc(Br)c2-c2ccc(Cl)cc2)c(Cl)c1 [compound 324] | 93 | 97 | 99 | 99 | 82 | 99 | 9 | – | – | – | – | – | – | –
Cc1nc(Br)n(-c2ccc(F)cc2Cl)c1-c1ccc(Cl)c(F)c1 [compound 325] | 96 | 97 | 94 | 91 | 51 | 99 | 0 | – | – | – | – | – | – | –
Fc1ccc(-n2c(Cl)nc(Br)c2-c2ccc(Cl)c(F)c2)c(Cl)c1 [compound 326] | 96 | 98 | 100 | 100 | 51 | 100 | 67 | – | – | – | – | – | – | –
Fc1cccc(F)c1-c1c(Cl)nc(Br)n1-c1ccc2ncccc2c1 [compound 327] | – | – | – | – | – | – | – | 94* % | 86* % | 99* % | 98* % | 0* % | 0* % | 0* %
Fc1ccc(-n2c(Br)nc(Cl)c2-c2ccc(Cl)c(F)c2)c(Cl)c1 [compound 328] | 95 | 94 | 100 | 98 | 0 | 98 | 9 | – | – | – | – | – | – | –
Fc1ccc(-n2c(Br)nc(Cl)c2-c2ccc(Cl)cc2)c(Cl)c1 [compound 329] | 94 | 90 | 99 | 99 | 0 | 99 | 0 | – | – | – | – | – | – | –
Fc1ccc(F)c(-c2c(Br)ncn2-c2ccc(Cl)cc2)c1F [compound 330] | 96 | 98 | 100 | 100 | 0 | 99 | 9 | – | – | – | – | – | – | –
Fc1ccc(-n2cnc(Br)c2-c2c(F)ccc(F)c2F)cc1 [compound 332] | 95 | 96 | 100 | 99 | 60 | 99 | 9 | – | – | – | – | – | – | –
COc1ccc(F)c(-c2c(Cl)nc(C)n2-c2ccc(C)cc2)c1F [compound 333] | – | – | – | – | – | – | – | 91* % | 100* % | 100* % | 100* % | 99* % | 100* % | 0* %
COc1ccc(F)c(-c2c(Cl)nc(C)n2-c2ccc(F)cc2)c1F [compound 334] | – | – | – | – | – | – | – | 93* % | 100* % | 100* % | 100* % | 90* % | 100* % | 0* %
